Here are results for 2 compounds from patent US12090147B2, “Combination therapy with 2-(4-chlorophenyl)-N-((2-(2,6-dioxopiperidin-3-yl)-1-oxoisoindolin-5-yl)methyl)-2,2-difluoroacetamide” (Celgene Corporation, priority 2019, dated 2024).

Assay [1] has as its system MV4-11. Nature of the assay: Cytokine induction, electrochemiluminescence assay of culture supernatant. The note with it: compounds at 1 μM, 72 hours. It is filed as cell-based, human.
Assay [2] relates to ML-2. Described as above. It is filed as cell-based, human. The note with it: compounds at 1 μM, 72 hours.
For assay [3], the system named is MV4-11. The assay is described as follows: Caspase 8/FLICE activity colorimetric assay. The note with it: compounds at 1 μM, 24, 48 and 72 hours. It is filed as cell-based, human. How it is done: (§1) Next, tests were performed to see if caspase 8 activation alone is sufficient to mediate IL-1β induction. […] To ensure caspase 8 activity was captured at an appropriate time frame, caspase 8 activation levels at 24, 48 and 72 hours were measured (FIGS. 3C and 3D) using a caspase 8/FLICE activity colorimetric assay.

In assay [4] the test system is ML-2. Nature of the assay: Caspase 8/FLICE activity colorimetric assay. It is filed as cell-based, human. As to conditions: compounds at 1 μM, 24, 48 and 72 hours. How it is done:
as §1

Assay [5] has as its system acute myeloid leukemia (AML) at relapse. The note with it: administered alone; cited from earlier work.

As for `COc1cccc2c1C(=O)c1c(O)c3c(c(O)c1C2=O)C[C@@](O)(C(C)=O)C[C@@H]3O[C@H]1C[C@H](N)[C@H](O)[C@H](C)O1` [daunorubicin, reference compound], the “Secreted IL-1β levels, panel of mechanistic compounds” value with MV4-11 [1] and in the assay on ML-2 [2] was “not able to induce secreted IL-1β as efficiently as Compound 1” in each case. Besides, the “Caspase 8 activation level” value in the assay with MV4-11 [3] and in the assay on ML-2 [4] was “higher extent of caspase 8 activation than Compound 1” in each case.
Consider “CT-011: anti-PD-1 antibody, a humanized antibody”, for which the “Response in treating AML at relapse” value in assay [5] is “failed to show response”.
